Assay results as given in patent US8455226B2, “Method for producing metal nanoparticles” (Janssen Pharmaceutica N.V., priority 2006, dated 2013).

How the values were obtained:
some bacteria = settings: cited from earlier work
Escherichia coli = experiment: Antimicrobial activity on a solid growth medium for Escherichia coli (Example 4); assay type: cell-based; settings: 24 hours at 30° C., plated 2×10^6 CFU/mL
Procedure: 100 mL of a silver suspension with an Ag concentration of 5 mM, in the form of nanosilver deposited on Lactobacillus fermentum biomass as obtained in example 1, was plated onto a solidified growth medium for culturing Escherichia coli (Luria Bertani Agar). As a control, 100 mL of a solution of 5 mM AgNO3 in sterile milliQ water with 0.1 N NaOH were plated on the same growth medium. This setting agreed with a total amount of 0.05 mg Ag per agar plate, or 11 mg Ag per m^2 of total surface area. This experiment was repeated with twofold the latter concentrations, i.e. with 0.11 mg Ag per agar plate or 22 mg Ag per m^2 of total surface area.
By plating these silver suspensions, a homogeneous layer of Ag(I)NO3, or nano-Ag respectively, was applied onto the solidified growth media.
After pre-treating the solidified growth medium in this way, 100 μL of a 2×10^6 CFU/mL Escherichia coli suspension in physiological solution (8.5 g NaCl/L in sterile water) was plated on the pre-treated agar plates. The plates were then incubated during 24 hours at 30° C. and colonies were counted. The count results are illustrated by FIG. 1. At nano-Ag concentrations of 11 mg Ag/m^2 and 22 mg Ag/m^2, no viable cells of E. coli could be detected on the treated solid growth medium (<detection limit (D.L.)=1×10^1 CFU/ml). […]

Compound | concentration known to inhibit the growth of some bacteria (some bacteria) | viable cells of E. coli on treated solid growth medium (Escherichia coli; 11 mg Ag/m^2) | viable cells of E. coli on treated solid growth medium (Escherichia coli; 22 mg Ag/m^2)
OO [Hydrogen peroxide] | 25 mg/L | – | –
O=[N+]([O-])[O-].[Ag+] [Ag(I)NO3, AgNO3] | – | 4×10^2 CFU/ml | 1×10^2 CFU/ml
